In paper PMC4421842 (Nature Communications, 2015):
In brackets after ≈: the same amount, converted by molar mass. Several values for one entry are separate records, joined by “and”; a condition that tells them apart may be missing. Equal values may be shown once. Entries after “also recorded” stand apart in the source; their conditions may differ. Read-outs that look alike come from different tables or passages of the source.

Key:
[1] = tested on: A. baumannii; test: MIC, microdilution broth, A. baumannii; type: cell-based; settings: Acinetobacter baumannii
From the text: (§1) MRSA and P. aeruginosa isolates were from Cubist Pharmaceuticals (Lexington, MA). VRE isolates were from a previously published collection. E. coli strains were obtained either from ATCC or Professor Cari Vanderpool (UIUC). A. baumannii isolates were obtained from Dr John Quale[51].
(§2) Mueller Hinton (MH) broth was used.

[2] = Pharmacokinetic assessment; type: in vivo, C57BL/6 mice; settings: for Cmax: read-out: Cmax (peak serum concentration)
Description: (§3) The animal studies (PK, in-vivo toxicity and in-vivo efficacy) were carried out in strict accordance with the recommendations in the Guide for the Care and Use of Laboratory Animals of the National Institutes of Health. […] In these studies, 10- to 12-week-old female C57BL/6 mice purchased from Charles River were used. DNM, DNM-2 and DNM-3 were formulated as slurries at 8.3 mg ml^−1 in 25% Cremophor RH40/water (v/v). Before beginning the pharmacokinetic assessment, mice were first tested for their ability to tolerate the DNM, DNM-2 and DNM-3 at 50 mg kg^−1 (p.o.). […] At specified time points, mice were killed and blood was collected, centrifuged and the serum was frozen at −80 °C until analysis. The proteins in a 50-μl aliquot of serum were precipitated by the addition of 50 μl of acetonitrile and the sample was centrifuged to remove the proteins. Serum concentrations of DNM, DNM-2 and DNM-3 were determined by HPLC. PK parameters were determined using GraphPad Prism Version 5.00 for Windows.

[3] = tested on: E. faecalis; test: microbe, parasite or virus in culture; type: cell-based; settings: Enterococcus faecalis, E. faecalis
[4] = biological target: T1, S83R E. coli DNA gyrase (Escherichia coli, UniProt P0AES4+P0AES6, S83R); type: biochemical; settings: DNA cleavage assay
T1 construct: His tag (pTRCHisA vector; purified on Ni-NTA); made in house; host or cells: E. coli One Shot BL21 Star (DE3)

[5] = biological target: T2, WT E. coli DNA gyrase (Escherichia coli, UniProt P0AES4+P0AES6); type: biochemical; settings: DNA cleavage assay
T2 construct: His tag (pTRCHisA vector; purified on Ni-NTA); made in house; host or cells: E. coli One Shot BL21 Star (DE3)

[6] = tested on: resistant strains of ATCC 29213; test: microbe, parasite or virus in culture; type: cell-based, S. aureus
[7] = tested on: MRSA clinical isolates; test: microbe, parasite or virus in culture; type: cell-based, S. aureus; settings: for MIC: Staphylococcus aureus, MRSA, read-out: MIC
Procedure, shortened: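 Broth microdilution per CLSI guidelines in Mueller Hinton broth, run in triplicate against clinical MRSA isolates.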

[8] = tested on: VRE clinical isolates; test: MIC, VRE clinical isolates panel (summary by GyrA mutation); type: cell-based, Enterococcus; settings: panel of VRE clinical isolates (n=22)
From the text: as §1, §2

[9] = tested on: WT S. aureus (ATCC 29213, WT); test: microbe, parasite or virus in culture; type: cell-based; settings: WT GyrA and WT ParC, three independent replicates
[10] = tested on: S. aureus (ATCC 29213); test: Resistant mutant generation (resistance frequency); type: cell-based; settings: low-level CIP-resistant strain 29213-C1
[11] = tested on: FQR MRSA (NRS3); test: In-vivo efficacy, mouse sepsis model; settings: 50 mg kg^−1 oral gavage once daily for 10 days; n=15; Kaplan–Meier, log rank survival test
[12] = tested on: E. coli; test: microbe, parasite or virus in culture; type: cell-based; settings: Escherichia coli
From the text: as §1, §2

[13] = Tolerability in mice (maximal tolerated dose); type: in vivo
Description: as §3

[14] = tested on: P. aeruginosa; test: MIC, microdilution broth, P. aeruginosa; type: cell-based
From the text: as §1, §2

[15] = physchem; settings: pH 7.4
Description: Three independent replicates of each compound were performed.

[16] = tested on: E. faecium; test: microbe, parasite or virus in culture; type: cell-based; settings: Enterococcus faecium, E. faecium
[17] = tested on: Ent. Spp.; test: MIC, microdilution broth, Ent. Spp. VRE clinical isolate; type: cell-based; settings: Enterococcus, C28036, gyrA Ser83Ile, parC Ser80Ile
From the text: as §1, §2

[18] = female, C57BL/6, mouse, in vivo, C57/BL6 mice, 50 mg kg-1 oral gavage, serum

Compound: CCn1c(=O)cc(C)c2cc3c(C)cc(=O)n4c3c(c21)OC4 [DNM-2]
- MIC [1]: > 24 µg/mL
- MIC ([1]; ATCC19606, A. baumannii ATCC 19606, read-out: MIC): > 24 µg/mL
- AUC [2, 18]: 44000 ng·h/mL
- Tmax [2, 18]: 1.2 h
- half-life [2, 18]: 0.9 h
- Cmax ([2]; female, C57BL/6, mouse, in vivo, mice, 50 mg kg^−1 oral dose, serum): 42.6 µM
- Cmax ([2]; female, C57BL/6, mouse, mice, 50 mg kg^−1 oral dose, serum): 12800 ng/mL and ~50 µM
- oral bioavailability / serum exposure ([2]; mice, 50 mg kg^−1 oral dose): good bioavailability
- area under the curve ([2]; mice, 50 mg kg^−1 oral dose, serum): 44000 ng·h/mL
- MIC ([3]; ATCC19433, ATCC 19433, gyrA WT, parC WT): 8 µg/mL (≈ 27 µM)
- MIC ([3]; ATCC29212, ATCC 29212, gyrA WT, parC WT): 8 µg/mL (≈ 27 µM)
- MIC ([3]; C21667, gyrA Ser83Ile, parC Ser80Ile): 0.5 µg/mL (≈ 1.69 µM)
- MIC ([3]; S206, gyrA Ser83 Arg, parC Ser80Ile): 2 µg/mL (≈ 6.75 µM)
- inhibition of S83R DNA gyrase [4]: buildup of OC DNA similar to that seen with S83L DNA gyrase only at a slightly higher concentration or longer time points
- inhibition of WT DNA gyrase (increase in L or OC DNA) [5]: poor inhibitors of WT DNA gyrase
- MIC ([6]; Staphylococcus aureus, ATCC29213, high-level CIP-resistant strains, second step, S84L mutation in GyrA): 0.06 to 0.12 µg/mL (≈ 0.202 to 0.405 µM)
- MIC ([6]; low-level CIP-resistant strains, first step, WT gyrA, mutation in ParC (for example E84K or S80F)): not sensitive
- MIC ([7]; strain SAU.1118): 2 µg/mL (≈ 6.75 µM)
- MIC ([7]; strain SAU.2996): 0.5 µg/mL (≈ 1.69 µM)
- MIC ([7]; strain SAU.3017): 4 µg/mL (≈ 13.5 µM)
- MIC ([7]; strain SAU.3021): 0.063 µg/mL (≈ 0.213 µM)
- MIC ([7]; strain SAU.3024): 0.125 µg/mL (≈ 0.422 µM)
- MIC ([7]; strain SAU.3025): 0.063 µg/mL (≈ 0.213 µM)
- MIC ([7]; strain SAU.42): 2 µg/mL (≈ 6.75 µM)
- MIC ([7]; strain SAU.555): 0.25 µg/mL (≈ 0.844 µM)
- MIC ([7]; strain SAU.669): 0.063 µg/mL (≈ 0.213 µM)
- MIC ([7]; strain SAU.846): 0.25 µg/mL (≈ 0.844 µM)
- Sensitivity of MRSA clinical isolates ([7]; panel of MRSA clinical isolates (n=21)): sensitive
- Sensitivity of VRE clinical isolates [8]: sensitive
- MIC against S. aureus 29213 ([9]; ATCC 29213): 8 µg/mL (≈ 27 µM)
- MIC ([9]; Staphylococcus aureus, ATCC29213, ATCC 29213, read-out: MIC against S. aureus 29213): 8 µg/mL (≈ 27 µM)
- resistant colonies on treatment [10]: resistant colonies were observed
- survival of mice infected with MRSA (NRS3, FQR) [11]: ***P<0.005 versus vehicle and CIP; also recorded: significant survival difference relative to both CIP and vehicle-treated control; also recorded: effective in treating mice infected with MRSA
- MIC ([12]; ATCC25922, E. coli ATCC 25922, gyrA none, parC none): > 24 µg/mL
- MIC ([12]; MG1655, E. coli MG1655): > 24 µg/mL
- MIC ([12]; MG1655, E. coli MG1655 ∆AcrB (permeabilized strain)): 2 µg/mL (≈ 6.75 µM)
- tolerability ([13]; increasing doses, highest dose evaluated 50 mg kg^−1 by oral gavage): well tolerated up to the highest dose evaluated
- maximal tolerated dose ([13]; oral gavage): > 50 mg/kg
- MIC ([14]; PA1586 (CIP resistant clinical isolate)): > 24 µg/mL
- MIC ([14]; Pseudomonas aeruginosa, P. aeruginosa PAO1, read-out: MIC): > 24 µg/mL
- MIC ([14]; Pseudomonas aeruginosa, read-out: MIC): > 24 µg/mL
- solubility at 1 h [15]: 121 µM (≈ 35.9 µg/mL)
- MIC ([16]; C21190, gyrA Ser83 Arg, parC Ser80Ile): 8 µg/mL (≈ 27 µM)
- MIC ([16]; C27282, gyrA Ser83 Arg, parC Ser80Arg): 4 µg/mL (≈ 13.5 µM)
- MIC ([16]; C27569, gyrA Ser83Ile, parC Ser80Ile): 0.25 µg/mL (≈ 0.844 µM)
- MIC ([16]; D1, gyrA Ser83Ile, parC Ser80Ile): 0.5 µg/mL (≈ 1.69 µM)
- MIC ([16]; S34, gyrA Ser83Ile, parC Ser80 Arg): 1 µg/mL (≈ 3.37 µM)
- MIC ([16]; S51, gyrA Ser83Ile, parC Ser80Ile): 0.5 µg/mL (≈ 1.69 µM)
- MIC ([16]; S122, gyrA Ser83Ile, parC Ser80Ile): 0.5 µg/mL (≈ 1.69 µM)
- MIC ([16]; S226, gyrA Ser83Ile, parC Ser80Ile): 0.5 µg/mL (≈ 1.69 µM)
- MIC ([16]; S235, gyrA Ser83Ile, parC Ser80Ile): 0.5 µg/mL (≈ 1.69 µM)
- MIC ([16]; S344, gyrA Ser83Ile, parC Ser80Ile): 0.5 µg/mL (≈ 1.69 µM)
- MIC ([16]; S557, gyrA Ser83Ile, parC Ser80Ile): 0.25 µg/mL (≈ 0.844 µM)
- MIC ([16]; SL152, gyrA Ser83Ile, parC Ser80Ile): 0.5 µg/mL (≈ 1.69 µM)
- MIC ([16]; U63, gyrA Ser83 Arg, parC Ser80Ile): 4 µg/mL (≈ 13.5 µM)
- MIC ([16]; U275, gyrA Ser83Cys Glu87Gly, parC Ser80Ile): 2 µg/mL (≈ 6.75 µM)
- MIC ([16]; U464, gyrA Ser83 Arg, parC Ser80Ile): 2 µg/mL (≈ 6.75 µM)
- MIC ([16]; U503, gyrA Ser83 Arg, parC Ser80Ile): 4 µg/mL (≈ 13.5 µM)
- MIC ([16]; U563, gyrA Ser83 Arg, parC Ser80Ile): 2 µg/mL (≈ 6.75 µM)
- MIC [17]: 0.5 µg/mL (≈ 1.69 µM)
